Data as given in the supplement of paper PMC10307832.

What was measured:
Test in all cases: relative viability (nuclei count vs DMSO), 5 days (fraction); higher = more cells survive
Sunitinib = compound: CCN(CC)CCNC(=O)c1c(C)[nH]c(/C=C2\C(=O)Nc3ccc(F)cc32)c1C [Sunitinib]
Method in brief: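 Five library-drug doses spaced by √10 were pinned onto vehicle-anchored 1536-well plates of lung cancer cell lines that had been kept overnight at 37 °C. Cells went 5 days without medium change, then were fixed, permeabilised and Hoechst-stained together, imaged at 4× and counted by MetaXpress. Viability is the ratio of treated-well to vehicle-well nuclei, taken as a median over plates. Plates required control CV below 25% and at least one doubling.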

Sunitinib + Navitoclax = compound: CCN(CC)CCNC(=O)c1c(C)[nH]c(/C=C2\C(=O)Nc3ccc(F)cc32)c1C [Sunitinib] + CC1(C)CCC(c2ccc(Cl)cc2)=C(CN2CCN(c3ccc(C(=O)NS(=O)(=O)c4ccc(N[C@H](CCN5CCOCC5)CSc5ccccc5)c(S(=O)(=O)C(F)(F)F)c4)cc3)CC2)C1 [Navitoclax] (partner 0.5 µM)
Method in brief: (§1)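 Lung cancer cell lines were pin-tool dosed in 1536-well plates on the day after seeding, with either a lone drug or a fixed anchor-drug dose plus five library-drug doses (not always all listed) in √10 steps. Nuclei were counted on 4× images after 5 days. Relative viability is the ratio of treated-well to vehicle-well nuclei counts, with each value a median of duplicate plates.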

Sunitinib + Foretinib = compound: CCN(CC)CCNC(=O)c1c(C)[nH]c(/C=C2\C(=O)Nc3ccc(F)cc32)c1C [Sunitinib] + COc1cc2c(Oc3ccc(NC(=O)C4(C(=O)Nc5ccc(F)cc5)CC4)cc3F)ccnc2cc1OCCCN1CCOCC1 [Foretinib] (partner 0.25 µM)
Method in brief: as §1

Sunitinib + Lapatinib = compound: CCN(CC)CCNC(=O)c1c(C)[nH]c(/C=C2\C(=O)Nc3ccc(F)cc32)c1C [Sunitinib] + CS(=O)(=O)CCNCc1ccc(-c2ccc3ncnc(Nc4ccc(OCc5cccc(F)c5)c(Cl)c4)c3c2)o1 [Lapatinib] (partner 2 µM)
Method in brief: as §1

Sunitinib + Pictilisib = compound: CCN(CC)CCNC(=O)c1c(C)[nH]c(/C=C2\C(=O)Nc3ccc(F)cc32)c1C [Sunitinib] + CS(=O)(=O)N1CCN(Cc2cc3nc(-c4cccc5[nH]ncc45)nc(N4CCOCC4)c3s2)CC1 [Pictilisib] (partner 1 µM)
Method in brief: as §1

Sunitinib + Crizotinib = compound: CCN(CC)CCNC(=O)c1c(C)[nH]c(/C=C2\C(=O)Nc3ccc(F)cc32)c1C [Sunitinib] + C[C@@H](Oc1cc(-c2cnn(C3CCNCC3)c2)cnc1N)c1c(Cl)ccc(F)c1Cl [Crizotinib] (partner 1 µM)
Method in brief: as §1

Sunitinib + Linsitinib = compound: CCN(CC)CCNC(=O)c1c(C)[nH]c(/C=C2\C(=O)Nc3ccc(F)cc32)c1C [Sunitinib] + C[C@]1(O)C[C@@H](c2nc(-c3ccc4ccc(-c5ccccc5)nc4c3)c3c(N)nccn32)C1 [Linsitinib] (partner 1 µM)
Method in brief: as §1

Sunitinib + Alpelisib = compound: CCN(CC)CCNC(=O)c1c(C)[nH]c(/C=C2\C(=O)Nc3ccc(F)cc32)c1C [Sunitinib] + Cc1nc(NC(=O)N2CCC[C@H]2C(N)=O)sc1-c1ccnc(C(C)(C)C(F)(F)F)c1 [Alpelisib] (partner 2 µM)
Method in brief: as §1

Sunitinib + Phenformin = compound: CCN(CC)CCNC(=O)c1c(C)[nH]c(/C=C2\C(=O)Nc3ccc(F)cc32)c1C [Sunitinib] + N=C(N)NC(=N)NCCc1ccccc1 [Phenformin] (partner 250 µM)
Method in brief: as §1

Sunitinib + Decitabine = compound: CCN(CC)CCNC(=O)c1c(C)[nH]c(/C=C2\C(=O)Nc3ccc(F)cc32)c1C [Sunitinib] + Nc1ncn([C@H]2C[C@H](O)[C@@H](CO)O2)c(=O)n1 [Decitabine] (partner 2 µM)
Method in brief: as §1

Sunitinib + Olaparib = compound: CCN(CC)CCNC(=O)c1c(C)[nH]c(/C=C2\C(=O)Nc3ccc(F)cc32)c1C [Sunitinib] + O=C(c1cc(Cc2n[nH]c(=O)c3ccccc23)ccc1F)N1CCN(C(=O)C2CC2)CC1 [Olaparib] (partner 8 µM)
Method in brief: as §1

Sunitinib + Bortezomib = compound: CCN(CC)CCNC(=O)c1c(C)[nH]c(/C=C2\C(=O)Nc3ccc(F)cc32)c1C [Sunitinib] + CC(C)C[C@H](NC(=O)[C@H](Cc1ccccc1)NC(=O)c1cnccn1)B(O)O [Bortezomib] (partner 0.002 µM)
Method in brief: as §1

Sunitinib + Vorinostat = compound: CCN(CC)CCNC(=O)c1c(C)[nH]c(/C=C2\C(=O)Nc3ccc(F)cc32)c1C [Sunitinib] + O=C(CCCCCCC(=O)Nc1ccccc1)NO [Vorinostat] (partner 1 µM)
Method in brief: as §1

A549
relative viability (Sunitinib; 0.02 µM): 0.945 | relative viability (Sunitinib; 0.06325 µM): 1.1 | relative viability (Sunitinib; 0.2 µM): 1.23 | relative viability (Sunitinib; 0.6325 µM): 1.06 | relative viability (Sunitinib; 2 µM): 0.972 | relative viability (Sunitinib + Navitoclax; first compound 0.02 µM): 1.16 | relative viability (Sunitinib + Navitoclax; first compound 0.06325 µM): 1.3 | relative viability (Sunitinib + Navitoclax; first compound 0.2 µM): 1.36 | relative viability (Sunitinib + Navitoclax; first compound 2 µM): 1.07 | relative viability (Sunitinib + Foretinib; first compound 0.02 µM): 1.06 | relative viability (Sunitinib + Foretinib; first compound 0.06325 µM): 0.951 | relative viability (Sunitinib + Foretinib; first compound 0.2 µM): 1.09 | relative viability (Sunitinib + Foretinib; first compound 0.6325 µM): 1.05 | relative viability (Sunitinib + Foretinib; first compound 2 µM): 0.974 | relative viability (Sunitinib + Lapatinib; first compound 0.02 µM): 1.03 | relative viability (Sunitinib + Lapatinib; first compound 0.2 µM): 1.21 | relative viability (Sunitinib + Lapatinib; first compound 0.6325 µM): 1.03 | relative viability (Sunitinib + Pictilisib; first compound 0.02 µM): 0.457 | relative viability (Sunitinib + Pictilisib; first compound 0.06325 µM): 0.546 | relative viability (Sunitinib + Pictilisib; first compound 0.2 µM): 0.589 | relative viability (Sunitinib + Pictilisib; first compound 0.6325 µM): 0.631 | relative viability (Sunitinib + Pictilisib; first compound 2 µM): 0.412 | relative viability (Sunitinib + Crizotinib; first compound 0.02 µM): 0.722 | relative viability (Sunitinib + Crizotinib; first compound 0.06325 µM): 0.816 | relative viability (Sunitinib + Crizotinib; first compound 0.6325 µM): 0.906 | relative viability (Sunitinib + Crizotinib; first compound 2 µM): 0.711 | relative viability (Sunitinib + Linsitinib; first compound 0.02 µM): 0.563 | relative viability (Sunitinib + Linsitinib; first compound 0.06325 µM): 0.638 | relative viability (Sunitinib + Linsitinib; first compound 0.2 µM): 0.669 | relative viability (Sunitinib + Linsitinib; first compound 0.6325 µM): 0.716 | relative viability (Sunitinib + Linsitinib; first compound 2 µM): 0.579 | relative viability (Sunitinib + Alpelisib; first compound 0.02 µM): 0.686 | relative viability (Sunitinib + Alpelisib; first compound 0.06325 µM): 0.825 | relative viability (Sunitinib + Alpelisib; first compound 0.2 µM): 0.884 | relative viability (Sunitinib + Alpelisib; first compound 0.6325 µM): 0.872 | relative viability (Sunitinib + Alpelisib; first compound 2 µM): 0.776 | relative viability (Sunitinib + Phenformin; first compound 0.02 µM): 0.166 | relative viability (Sunitinib + Phenformin; first compound 0.06325 µM): 0.214 | relative viability (Sunitinib + Phenformin; first compound 0.2 µM): 0.148 | relative viability (Sunitinib + Phenformin; first compound 0.6325 µM): 0.126 | relative viability (Sunitinib + Phenformin; first compound 2 µM): 0.155 | relative viability (Sunitinib + Decitabine; first compound 0.02 µM): 0.248 | relative viability (Sunitinib + Decitabine; first compound 0.06325 µM): 0.293 | relative viability (Sunitinib + Decitabine; first compound 0.2 µM): 0.252 | relative viability (Sunitinib + Decitabine; first compound 0.6325 µM): 0.272 | relative viability (Sunitinib + Decitabine; first compound 2 µM): 0.306 | relative viability (Sunitinib + Olaparib; first compound 0.02 µM): 0.282 | relative viability (Sunitinib + Olaparib; first compound 0.06325 µM): 0.326 | relative viability (Sunitinib + Olaparib; first compound 0.2 µM): 0.348 | relative viability (Sunitinib + Olaparib; first compound 0.6325 µM): 0.484 | relative viability (Sunitinib + Olaparib; first compound 2 µM): 0.383

IA-LM
relative viability (Sunitinib; 0.02 µM): 0.951 | relative viability (Sunitinib; 0.06325 µM): 0.953 | relative viability (Sunitinib; 0.2 µM): 1.05 | relative viability (Sunitinib; 0.6325 µM): 1.1 | relative viability (Sunitinib; 2 µM): 1.07 | relative viability (Sunitinib + Bortezomib; first compound 0.02 µM): 0.831 | relative viability (Sunitinib + Bortezomib; first compound 0.06325 µM): 0.85 | relative viability (Sunitinib + Bortezomib; first compound 0.2 µM): 0.868 | relative viability (Sunitinib + Bortezomib; first compound 0.6325 µM): 1.12 | relative viability (Sunitinib + Bortezomib; first compound 2 µM): 1.18 | relative viability (Sunitinib + Navitoclax; first compound 0.02 µM): 0.767 | relative viability (Sunitinib + Navitoclax; first compound 0.06325 µM): 0.912 | relative viability (Sunitinib + Navitoclax; first compound 0.2 µM): 0.929 | relative viability (Sunitinib + Navitoclax; first compound 0.6325 µM): 0.872 | relative viability (Sunitinib + Navitoclax; first compound 2 µM): 0.814 | relative viability (Sunitinib + Foretinib; first compound 0.02 µM): 1.12 | relative viability (Sunitinib + Foretinib; first compound 0.06325 µM): 1.32 | relative viability (Sunitinib + Foretinib; first compound 0.2 µM): 1.25 | relative viability (Sunitinib + Foretinib; first compound 0.6325 µM): 1.14 | relative viability (Sunitinib + Foretinib; first compound 2 µM): 1.19 | relative viability (Sunitinib + Lapatinib; first compound 0.02 µM): 0.674 | relative viability (Sunitinib + Lapatinib; first compound 0.06325 µM): 0.917 | relative viability (Sunitinib + Lapatinib; first compound 0.2 µM): 0.804 | relative viability (Sunitinib + Lapatinib; first compound 0.6325 µM): 0.81 | relative viability (Sunitinib + Lapatinib; first compound 2 µM): 0.947 | relative viability (Sunitinib + Pictilisib; first compound 0.02 µM): 0.419 | relative viability (Sunitinib + Pictilisib; first compound 0.06325 µM): 0.395 | relative viability (Sunitinib + Pictilisib; first compound 0.2 µM): 0.358 | relative viability (Sunitinib + Pictilisib; first compound 0.6325 µM): 0.331 | relative viability (Sunitinib + Pictilisib; first compound 2 µM): 0.402 | relative viability (Sunitinib + Crizotinib; first compound 0.02 µM): 0.779 | relative viability (Sunitinib + Crizotinib; first compound 0.06325 µM): 0.774 | relative viability (Sunitinib + Crizotinib; first compound 0.2 µM): 0.982 | relative viability (Sunitinib + Crizotinib; first compound 0.6325 µM): 0.926 | relative viability (Sunitinib + Crizotinib; first compound 2 µM): 1.04 | relative viability (Sunitinib + Linsitinib; first compound 0.02 µM): 0.558 | relative viability (Sunitinib + Linsitinib; first compound 0.06325 µM): 0.719 | relative viability (Sunitinib + Linsitinib; first compound 0.6325 µM): 0.561 | relative viability (Sunitinib + Linsitinib; first compound 2 µM): 0.94 | relative viability (Sunitinib + Alpelisib; first compound 0.02 µM): 0.645 | relative viability (Sunitinib + Alpelisib; first compound 0.06325 µM): 0.812 | relative viability (Sunitinib + Alpelisib; first compound 0.2 µM): 0.773 | relative viability (Sunitinib + Alpelisib; first compound 0.6325 µM): 0.919 | relative viability (Sunitinib + Alpelisib; first compound 2 µM): 0.87 | relative viability (Sunitinib + Vorinostat; first compound 0.02 µM): 0.975 | relative viability (Sunitinib + Vorinostat; first compound 0.06325 µM): 0.864 | relative viability (Sunitinib + Vorinostat; first compound 0.2 µM): 0.987 | relative viability (Sunitinib + Vorinostat; first compound 0.6325 µM): 0.952 | relative viability (Sunitinib + Vorinostat; first compound 2 µM): 1.03 | relative viability (Sunitinib + Olaparib; first compound 0.02 µM): 0.826 | relative viability (Sunitinib + Olaparib; first compound 0.06325 µM): 0.973 | relative viability (Sunitinib + Olaparib; first compound 0.2 µM): 0.842 | relative viability (Sunitinib + Olaparib; first compound 2 µM): 0.981
